Results taken from patent publication US20240101521A1, “DIAMINOTRIAZINE COMPOUNDS” (BASF SE, priority 2021, published 2024).

Tests used:
Experiment in all cases: greenhouse pre-emergence herbicidal test
Type in all cases: in vivo
Conditions in all cases: scale 0 to 100
Abutilon theophrasti = system: Abutilon theophrasti
From the text: (§1) The culture containers used were plastic flowerpots containing loamy sand with approximately 3.0% of humus as the substrate. The seeds of the test plants were sown separately for each species.
(§2) For the pre-emergence treatment, the active ingredients, which had been suspended or emulsified in water, were applied directly after sowing by means of finely distributing nozzles. The containers were irrigated gently to promote germination and growth and subsequently covered with transparent plastic hoods until the plants had rooted. This cover caused uniform germination of the test plants, unless this had been impaired by the active ingredients. For the post-emergence treatment, the test plants were first grown to a height of 3 to 15 cm, depending on the plant habit, and only then treated with the active ingredients which had been suspended or emulsified in water. For this purpose, the test plants were either sown directly and grown in the same containers, or they were first grown separately as seedlings and transplanted into the test containers a few days prior to treatment.
(§3) Depending on the species, the plants were kept at 10-25° C. or 20-35° C., respectively.
(§4) The test period extended over 2 to 4 weeks. During this time, the plants were tended, and their response to the individual treatments was evaluated.
(§5) Evaluation was carried out using a scale from 0 to 100. 100 means no emergence of the plants, or complete destruction of at least the aerial moieties, and 0 means no damage, or normal course of growth. A moderate herbicidal activity is given at values of at least 60, a good herbicidal activity is given at values of at least 70, and a very good herbicidal activity is given at values of at least 85.
(§6) The plants used in the greenhouse experiments were of the following species: […]

Echinochloa crus-galli = system: Echinochloa crus-galli
From the text: as §1, §2, §3, §4, §5, §6

Setaria faberi = system: Setaria faberi
From the text: as §1, §2, §3, §4, §5, §6

Amaranthus retroflexus = system: Amaranthus retroflexus
From the text: as §1, §2, §3, §4, §5, §6

`COc1c(Br)cc(F)c(F)c1Nc1nc(N)nc(C(C)(C)F)n1` [Example 6, N4-(5-Bromo-2,3-difluoro-6-methoxy-phenyl)-6-(1-fluoro-1-methyl-ethyl)-1,3,5-triazine-2,4-diamine] was tested, and the herbicidal activity (Abutilon theophrasti; pre-emergence, 125 g/ha) was 100%, the herbicidal activity (Echinochloa crus-galli; pre-emergence, 125 g/ha) was 100% and the herbicidal activity (Setaria faberi; pre-emergence, 125 g/ha) was 100%.

`COc1c(Cl)cc(F)c(F)c1Nc1nc(N)nc(C(C)(C)F)n1` [Example 7, N4-(5-Chloro-2,3-difluoro-6-methoxy-phenyl)-6-(1-fluoro-1-methyl-ethyl)-1,3,5-triazine-2,4-diamine] gave a herbicidal activity (Abutilon theophrasti; pre-emergence, 125 g/ha) of 100%, a herbicidal activity (Echinochloa crus-galli; pre-emergence, 125 g/ha) of 100% and a herbicidal activity (Setaria faberi; pre-emergence, 125 g/ha) of 100%.

For `COc1c(Br)cc(Br)c(F)c1Nc1nc(N)nc(C(C)(C)F)n1` [Example 8], the herbicidal activity (Abutilon theophrasti; pre-emergence, 125 g/ha) was 100%, the herbicidal activity (Echinochloa crus-galli; pre-emergence, 125 g/ha) was 100% and the herbicidal activity (Setaria faberi; pre-emergence, 125 g/ha) was 100%.

Work on `COc1c(Br)cc(Br)c(F)c1Nc1nc(N)nc(C2(F)CCCCC2)n1` [Example 9] yielded a herbicidal activity (Abutilon theophrasti; pre-emergence, 250 g/ha) of 90%, a herbicidal activity (Amaranthus retroflexus; pre-emergence, 250 g/ha) of 100% and a herbicidal activity (Setaria faberi; pre-emergence, 250 g/ha) of 95%.

For `COc1c(Cl)cc(F)c(F)c1Nc1nc(N)nc(C2(F)CCCCC2)n1` [Example 10], the herbicidal activity (Abutilon theophrasti; pre-emergence, 250 g/ha) was 100%, the herbicidal activity (Amaranthus retroflexus; pre-emergence, 250 g/ha) was 100% and the herbicidal activity (Setaria faberi; pre-emergence, 250 g/ha) was 100%.

`CC#CCOc1c(Br)cc(F)c(F)c1Nc1nc(N)nc(C2(F)CCCC2)n1` [Example 16] showed a herbicidal activity (Abutilon theophrasti; pre-emergence, 250 g/ha) of 100%, a herbicidal activity (Amaranthus retroflexus; pre-emergence, 250 g/ha) of 100% and a herbicidal activity (Echinochloa crus-galli; pre-emergence, 250 g/ha) of 100%.

`C#CCOc1c(Br)cc(F)c(F)c1Nc1nc(N)nc(C(C)(C)F)n1` [Example 17] showed a herbicidal activity (Abutilon theophrasti; pre-emergence, 250 g/ha) of 100%, a herbicidal activity (Amaranthus retroflexus; pre-emergence, 250 g/ha) of 100% and a herbicidal activity (Echinochloa crus-galli; pre-emergence, 250 g/ha) of 100%.

With `CC#CCOc1c(Cl)cc(F)c(F)c1Nc1nc(N)nc(C(C)(C)F)n1` [Example 18] the herbicidal activity (Abutilon theophrasti; pre-emergence, 62,5 g/ha) was 100%, the herbicidal activity (Amaranthus retroflexus; pre-emergence, 62,5 g/ha) was 100% and the herbicidal activity (Echinochloa crus-galli; pre-emergence, 62,5 g/ha) was 100%.

Work on `CCOc1c(Br)cc(F)c(F)c1Nc1nc(N)nc(C(C)(C)F)n1` [Example 19] yielded a herbicidal activity (Abutilon theophrasti; pre-emergence, 62,5 g/ha) of 100%, a herbicidal activity (Amaranthus retroflexus; pre-emergence, 62,5 g/ha) of 100% and a herbicidal activity (Echinochloa crus-galli; pre-emergence, 62,5 g/ha) of 100%.

`CCC#CCOc1c(Br)cc(F)c(F)c1Nc1nc(N)nc(C(C)(C)F)n1` [Example 20] was tested, and the herbicidal activity (Abutilon theophrasti; pre-emergence, 62,5 g/ha) was 100%, the herbicidal activity (Amaranthus retroflexus; pre-emergence, 62,5 g/ha) was 100% and the herbicidal activity (Echinochloa crus-galli; pre-emergence, 62,5 g/ha) was 100%.

In the case of `CC(C)(F)c1nc(N)nc(Nc2c(F)c(F)cc(Br)c2OCC#CC2CC2)n1` [Example 29], the herbicidal activity (Abutilon theophrasti; pre-emergence, 31 g/ha) is reported as 100%, the herbicidal activity (Amaranthus retroflexus; pre-emergence, 31 g/ha) is reported as 100% and the herbicidal activity (Setaria faberi; pre-emergence, 31 g/ha) is reported as 100%.

In the case of `CC(C)(F)c1nc(N)nc(Nc2c(F)c(F)cc(Br)c2OC(F)F)n1` [Example 31], the herbicidal activity (Abutilon theophrasti; pre-emergence, 250 g/ha) is reported as 100%, the herbicidal activity (Amaranthus retroflexus; pre-emergence, 250 g/ha) is reported as 100% and the herbicidal activity (Echinochloa crus-galli; pre-emergence, 250 g/ha) is reported as 100%.

In the case of `COc1c(F)cc(C)c(F)c1Nc1nc(N)nc(C(C)(C)F)n1` [Example 32, N4-(2,5-difluoro-6-methoxy-3-methyl-phenyl)-6-(1-fluoro-1-methyl-ethyl)-1,3,5-triazine-2,4-diamine], the herbicidal activity (Abutilon theophrasti; pre-emergence, 62,5 g/ha) is reported as 100%, the herbicidal activity (Amaranthus retroflexus; pre-emergence, 62,5 g/ha) is reported as 100% and the herbicidal activity (Echinochloa crus-galli; pre-emergence, 62,5 g/ha) is reported as 100%.

Work on `COc1c(Br)cc(F)c(F)c1Nc1nc(N)nc(C(C)(F)F)n1` [Example 50] yielded a herbicidal activity (Abutilon theophrasti; pre-emergence, 31 g/ha) of 80%, a herbicidal activity (Amaranthus retroflexus; pre-emergence, 31 g/ha) of 100% and a herbicidal activity (Setaria faberi; pre-emergence, 31 g/ha) of 100%.

With `COc1c(C)cc(Br)c(F)c1Nc1nc(N)nc(C(C)(C)F)n1` [Example 51] the herbicidal activity (Abutilon theophrasti; pre-emergence, 62 g/ha) was 100%, the herbicidal activity (Amaranthus retroflexus; pre-emergence, 62 g/ha) was 100% and the herbicidal activity (Setaria faberi; pre-emergence, 62 g/ha) was 100%.

With `CC#CCOc1c(Br)cc(F)c(F)c1Nc1nc(N)nc(C2(F)CC2)n1` [Example 56] the herbicidal activity (Abutilon theophrasti; pre-emergence, 62,5 g/ha) was 90%, the herbicidal activity (Echinochloa crus-galli; pre-emergence, 62,5 g/ha) was 90% and the herbicidal activity (Setaria faberi; pre-emergence, 62,5 g/ha) was 100%.

Compound `CC#CCOc1c(Cl)cc(F)c(F)c1Nc1nc(N)nc(C2(F)CC2)n1` [Example 57] has a herbicidal activity (Abutilon theophrasti; pre-emergence, 31 g/ha) of 98%, a herbicidal activity (Echinochloa crus-galli; pre-emergence, 31 g/ha) of 100% and a herbicidal activity (Setaria faberi; pre-emergence, 31 g/ha) of 100%.

`CC#CCOc1c(Cl)cc(F)c(F)c1Nc1nc(N)nc(C2(F)CCCC2)n1` [Example 58] was tested, and the herbicidal activity (Abutilon theophrasti; pre-emergence, 62,5 g/ha) was 100%, the herbicidal activity (Echinochloa crus-galli; pre-emergence, 62,5 g/ha) was 100% and the herbicidal activity (Setaria faberi; pre-emergence, 62,5 g/ha) was 100%.

For `COc1c(Cl)cc(Cl)c(F)c1Nc1nc(N)nc(C(C)(C)F)n1` [Example 59], the herbicidal activity (Abutilon theophrasti; pre-emergence, 62,5 g/ha) was 100%, the herbicidal activity (Echinochloa crus-galli; pre-emergence, 62,5 g/ha) was 95% and the herbicidal activity (Setaria faberi; pre-emergence, 62,5 g/ha) was 100%.

Work on `CC#CCOc1c(Br)cc(Br)c(F)c1Nc1nc(N)nc(C(C)(C)F)n1` [Example 64] yielded a herbicidal activity (Abutilon theophrasti; pre-emergence, 62 g/ha) of 100%, a herbicidal activity (Echinochloa crus-galli; pre-emergence, 62 g/ha) of 100% and a herbicidal activity (Setaria faberi; pre-emergence, 62 g/ha) of 100%.

Compound `C#CCOc1c(Br)cc(Br)c(F)c1Nc1nc(N)nc(C(C)(C)F)n1` [Example 65] has a herbicidal activity (Abutilon theophrasti; pre-emergence, 62 g/ha) of 100%, a herbicidal activity (Echinochloa crus-galli; pre-emergence, 62 g/ha) of 100% and a herbicidal activity (Setaria faberi; pre-emergence, 62 g/ha) of 100%.

`COc1c(Br)cc(F)c(F)c1Nc1nc(N)nc(C2(F)CCCC2)n1` [Example 81] was tested, and the herbicidal activity (Abutilon theophrasti; pre-emergence, 62 g/ha) was 100%, the herbicidal activity (Echinochloa crus-galli; pre-emergence, 62 g/ha) was 100% and the herbicidal activity (Setaria faberi; pre-emergence, 62 g/ha) was 100%.
